# Data from ChEMBL document CHEMBL5370537, “Aporphines: A privileged scaffold in CNS drug discovery” (Eur J Med Chem, 2023).
# Key:
# [1] = target: T1, 5-hydroxytryptamine receptor 1A (Homo sapiens, UniProt P08908); assay: Displacement of [3H]8-OH-DPAT from human 5-HT1A assessed as inhibition constant
# T1 sequence (P08908 whole entry): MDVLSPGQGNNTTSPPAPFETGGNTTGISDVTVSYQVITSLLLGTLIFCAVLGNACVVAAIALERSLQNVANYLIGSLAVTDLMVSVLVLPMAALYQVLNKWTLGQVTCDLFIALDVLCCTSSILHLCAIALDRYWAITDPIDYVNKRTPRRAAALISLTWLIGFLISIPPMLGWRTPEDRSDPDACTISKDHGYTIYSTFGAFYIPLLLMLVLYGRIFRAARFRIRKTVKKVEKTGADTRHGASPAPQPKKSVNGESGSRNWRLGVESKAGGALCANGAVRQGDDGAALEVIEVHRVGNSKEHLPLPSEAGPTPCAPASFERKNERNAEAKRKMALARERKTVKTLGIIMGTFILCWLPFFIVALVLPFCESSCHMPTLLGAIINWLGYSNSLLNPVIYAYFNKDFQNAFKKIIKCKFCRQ
# [2] = target: 5-hydroxytryptamine receptor 7 (Rattus norvegicus, UniProt P32305); assay: Displacement of [3H]5-HT from rat 5-HT7 assessed as inhibition constant
# Sequence of 5-hydroxytryptamine receptor 7 (P32305 whole entry): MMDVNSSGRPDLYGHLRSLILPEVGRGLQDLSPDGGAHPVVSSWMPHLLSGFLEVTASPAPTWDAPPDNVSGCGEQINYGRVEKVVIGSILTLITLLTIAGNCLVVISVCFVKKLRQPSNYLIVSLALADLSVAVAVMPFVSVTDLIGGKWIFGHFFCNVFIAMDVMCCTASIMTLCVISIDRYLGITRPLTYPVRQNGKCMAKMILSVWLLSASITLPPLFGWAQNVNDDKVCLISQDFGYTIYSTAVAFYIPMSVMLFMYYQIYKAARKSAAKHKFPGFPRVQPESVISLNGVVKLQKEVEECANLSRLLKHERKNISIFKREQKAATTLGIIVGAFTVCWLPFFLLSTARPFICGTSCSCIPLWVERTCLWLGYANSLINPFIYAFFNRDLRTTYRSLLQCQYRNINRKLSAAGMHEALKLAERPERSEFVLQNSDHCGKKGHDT
# [3] = Inhibition of neuronal excitability in mouse Primary neocortical neuron assessed as reduction in SCO frequency measured after 45 mins by FLIPR assay; assay type: functional, cell-based; details: 0.75 h
# [4] = Inhibition of neuronal excitability in mouse Primary neocortical neuron assessed as reduction in SCO amplitude measured after 45 mins by FLIPR assay; assay type: functional, cell-based; details: 0.75 h
Ki [1] [µM],Ki [2] [µM],SMILES,IC50 [3] [µM],IC50 [4] [µM]
0.0615,0.0069,CN1CCc2ccc3c4c2[C@H]1Cc1cccc(c1-4)[C@]3(C)O,–,–
–,–,COc1ccc2c(c1O)-c1c3c(cc4c1[C@H](C2)N(C)CC4)OCO3 [(S)-BULBOCAPNINE],11.6,12.9
